Each structure is given as a SMILES string.

The test deals with MV-4-11 cells. As to the kind of experiment: Gene expression microarray analysis (Affymetrix PrimeView) and GSEA. It counts as cell-based, human. Further details: RFU PODN (11730768_x_at) / Fold change /veh PODN (11730768_x_at) / RFU LINC00158 (11744669_a_at) / Fold change /veh LINC00158 (11744669_a_at) / RFU DUSP10 (11751237_a_at) / Fold change /veh DUSP10 (11751237_a_at) / RFU ID3 (11757404_x_at) / Fold change /veh ID3 (11757404_x_at) / RFU PLEKHG5 (11737974_s_at) / Fold change /veh PLEKHG5 (11737974_s_at) / RFU LRRC4B (11730491_at) / Fold change /veh LRRC4B (11730491_at) / RFU GIMAP4 (11747438_a_at) / Fold change /veh GIMAP4 (11747438_a_at) / RFU KRT8 (11758183_x_at) / Fold change /veh KRT8 (11758183_x_at) / RFU CNN1 (11734310_a_at) / Fold change /veh CNN1 (11734310_a_at) / RFU VPS37D (11726825_at) / Fold change /veh VPS37D (11726825_at) / RFU C10orf10 (11716522_x_at) / Fold change /veh C10orf10 (11716522_x_at) / RFU KIR2DL2 /// KIR2DL4 /// KIR2DL5A /// KIR2DL5B /// KIR2DS1 /// KIR2DS2 /// KIR2DS3 /// KIR2DS4 /// KIR3DL3 /// KIR3DL3 /// KIR3DS1 (11738374_at) / Fold change /veh KIR2DL2 /// KIR2DL4 /// KIR2DL5A /// KIR2DL5B /// KIR2DS1 /// KIR2DS2 /// KIR2DS3 /// KIR2DS4 /// KIR3DL3 /// KIR3DL3 /// KIR3DS1 (11738374_at) / RFU C1QL1 (11718748_at) / Fold change /veh C1QL1 (11718748_at) / RFU TMPRSS4 (11747572_a_at) / Fold change /veh TMPRSS4 (11747572_a_at) / RFU HAMP (11756126_x_at) / Fold change /veh HAMP (11756126_x_at) / RFU RNFT2 (11725882_a_at) / Fold change /veh RNFT2 (11725882_a_at) / RFU NR4A2 (11747474_a_at) / Fold change /veh NR4A2 (11747474_a_at) / RFU ABCC12 (11746883_a_at) / Fold change /veh ABCC12 (11746883_a_at) / RFU TMEM136 (11760407_x_at) / Fold change /veh TMEM136 (11760407_x_at) / RFU CLDN22 /// WWC2 (11732394_at) / Fold change /veh CLDN22 /// WWC2 (11732394_at) / RFU HLA-DPB1 (11760878_x_at) / Fold change /veh HLA-DPB1 (11760878_x_at) / RFU SPINT1 (11716480_a_at) / Fold change /veh SPINT1 (11716480_a_at) / RFU GAP43 (11754022_s_at) / Fold change /veh GAP43 (11754022_s_at) / RFU A4GNT (11735810_at) / Fold change /veh A4GNT (11735810_at) / RFU PRB3 (11715151_x_at) / Fold change /veh PRB3 (11715151_x_at) / RFU TUBB4B (11761932_at) / Fold change /veh TUBB4B (11761932_at) / RFU CAPN14 (11732068_a_at) / Fold change /veh CAPN14 (11732068_a_at) / RFU TMCC2 (11721928_a_at) / Fold change /veh TMCC2 (11721928_a_at) / RFU IRGQ (11745062_a_at) / Fold change /veh IRGQ (11745062_a_at) / RFU FAM174B (11720279_a_at) / Fold change /veh FAM174B (11720279_a_at) / RFU TMPRSS4 (11748680_a_at) / Fold change /veh TMPRSS4 (11748680_a_at) / RFU FAM212B (11763350_a_at) / Fold change /veh FAM212B (11763350_a_at) / RFU PLEKHG5 (11743358_a_at) / Fold change /veh PLEKHG5 (11743358_a_at) / RFU ZSCAN30 (11745921_a_at) / Fold change /veh ZSCAN30 (11745921_a_at) / RFU CMKLR1 (11741424_a_at) / Fold change /veh CMKLR1 (11741424_a_at) / RFU LOC101060620 /// MAPK8IP1 (11723275_at) / Fold change /veh LOC101060620 /// MAPK8IP1 (11723275_at) / RFU SPTSSB (11747773_x_at) / Fold change /veh SPTSSB (11747773_x_at) / RFU PRSS12 (11739890_at) / Fold change /veh PRSS12 (11739890_at) / RFU BIN1 (11741810_x_at) / Fold change /veh BIN1 (11741810_x_at) / RFU WNT11 (11732464_a_at) / Fold change /veh WNT11 (11732464_a_at) / RFU C10orf10 (11716521_a_at) / Fold change /veh C10orf10 (11716521_a_at) / RFU C5orf56 (11738089_at) / Fold change /veh C5orf56 (11738089_at) / RFU CYB561 (11721691_x_at) / Fold change /veh CYB561 (11721691_x_at) / RFU ANKRD19P (11752326_a_at) / Fold change /veh ANKRD19P (11752326_a_at) / RFU OR2T12 /// OR2T33 /// OR2T8 (11738714_s_at) / Fold change /veh OR2T12 /// OR2T33 /// OR2T8 (11738714_s_at) / RFU VCAN (11748164_a_at) / Fold change /veh VCAN (11748164_a_at) / RFU JSRP1 (11732532_at) / Fold change /veh JSRP1 (11732532_at) / RFU KRTAP10-11 (11738290_x_at) / Fold change /veh KRTAP10-11 (11738290_x_at) / RFU MYO3A (11730013_a_at) / Fold change /veh MYO3A (11730013_a_at) / RFU EBF3 (11725865_a_at) / Fold change /veh EBF3 (11725865_a_at) / RFU CAMK2N1 (11719241_x_at) / Fold change /veh CAMK2N1 (11719241_x_at) / RFU C5orf56 (11738088_a_at) / Fold change /veh C5orf56 (11738088_a_at) / RFU OLFML3 (11715873_a_at) / Fold change /veh OLFML3 (11715873_a_at) / RFU LOC100653217 /// NTM (11731650_a_at) / Fold change /veh LOC100653217 /// NTM (11731650_a_at) / RFU MAPK11 (11762145_a_at) / Fold change /veh MAPK11 (11762145_a_at) / RFU FIZ1 (11724087_x_at) / Fold change /veh FIZ1 (11724087_x_at) / RFU OASL (11726364_x_at) / Fold change /veh OASL (11726364_x_at) / RFU SOX15 (11748057_x_at) / Fold change /veh SOX15 (11748057_x_at) / RFU CD79A (11719716_a_at) / Fold change /veh CD79A (11719716_a_at) / RFU HIST1H1D (11736915_at) / Fold change /veh HIST1H1D (11736915_at) / RFU CASKIN2 (11723855_a_at) / Fold change /veh CASKIN2 (11723855_a_at) / RFU LOC730098 (11760151_x_at) / Fold change /veh LOC730098 (11760151_x_at) / RFU OR4N2 (11742367_at) / Fold change /veh OR4N2 (11742367_at) / RFU PRRT2 (11749266_a_at) / Fold change /veh PRRT2 (11749266_a_at) / RFU SNX32 (11753110_a_at) / Fold change /veh SNX32 (11753110_a_at) / RFU CDHR5 (11726645_a_at) / Fold change /veh CDHR5 (11726645_a_at) / RFU RCAN1 (11760418_a_at) / Fold change /veh RCAN1 (11760418_a_at) / RFU FAM167A (11723789_a_at) / Fold change /veh FAM167A (11723789_a_at) / RFU FAM26E (11764081_at) / Fold change /veh FAM26E (11764081_at) / RFU ISYNA1 (11749810_s_at) / Fold change /veh ISYNA1 (11749810_s_at) / RFU ACY1 (11761880_at) / Fold change /veh ACY1 (11761880_at) / RFU 11764098_at / Fold change /veh 11764098_at / RFU SAMD14 (11745864_x_at) / Fold change /veh SAMD14 (11745864_x_at) / RFU NPB (11741838_a_at) / Fold change /veh NPB (11741838_a_at) / RFU TMPRSS6 (11731388_a_at) / Fold change /veh TMPRSS6 (11731388_a_at) / RFU KRTAP10-2 (11738614_at) / Fold change /veh KRTAP10-2 (11738614_at) / RFU ARHGAP8 /// PRR5-ARHGAP8 (11727945_x_at) / Fold change /veh ARHGAP8 /// PRR5-ARHGAP8 (11727945_x_at) / RFU KRTAP5-7 /// NADSYN1 (11734609_at) / Fold change /veh KRTAP5-7 /// NADSYN1 (11734609_at) / RFU RASL12 (11751679_a_at) / Fold change /veh RASL12 (11751679_a_at) / RFU CDKN2B (11736163_a_at) / Fold change /veh CDKN2B (11736163_a_at) / RFU PRF1 (11729649_at) / Fold change /veh PRF1 (11729649_at) / RFU, ZNF638 /// ZNF638-IT1 / Fold change vs veh, ZNF638 /// ZNF638-IT1 / RFU, PANK3 / Fold change vs veh, PANK3 / RFU, SH3YL1 / Fold change vs veh, SH3YL1 / RFU, ZEB2 / Fold change vs veh, ZEB2 / RFU, NRIP1 / Fold change vs veh, NRIP1 / RFU, PTTG1IP / Fold change vs veh, PTTG1IP / RFU, CAPN2 / Fold change vs veh, CAPN2 / RFU, MED14 / Fold change vs veh, MED14 / RFU, SNORA58 / Fold change vs veh, SNORA58 / RFU, C1orf63 / Fold change vs veh, C1orf63 / RFU, LRRFIP1 / Fold change vs veh, LRRFIP1 / RFU, NDUFAF7 / Fold change vs veh, NDUFAF7 / RFU, SLC12A2 / Fold change vs veh, SLC12A2 / RFU, IBTK / Fold change vs veh, IBTK / RFU, ESF1 / Fold change vs veh, ESF1 / Fold change vs veh, TMEM50B / RFU, TAOK1 / Fold change vs veh, TAOK1 / RFU, ACBD3 / Fold change vs veh, ACBD3 / RFU, TMA16 / Fold change vs veh, TMA16 / RFU, RWDD3 / Fold change vs veh, RWDD3 / RFU, BCAT1 / Fold change vs veh, BCAT1 / RFU, EDEM3 / Fold change vs veh, EDEM3 / RFU, TMEM33 / Fold change vs veh, TMEM33 / RFU, WDR75 / Fold change vs veh, WDR75 / RFU, AHCTF1 / Fold change vs veh, AHCTF1 / RFU, TFRC / Fold change vs veh, TFRC / RFU, ZDHHC17 / Fold change vs veh, ZDHHC17 / RFU, NOM1 / Fold change vs veh, NOM1 / RFU, ARL8B / Fold change vs veh, ARL8B / RFU, ZBTB11 / Fold change vs veh, ZBTB11 / RFU, TAMM41 / Fold change vs veh, TAMM41 / RFU, KIAA1704 /// LOC100996395 / Fold change vs veh, KIAA1704 /// LOC100996395 / RFU, ING1 / Fold change vs veh, ING1 / RFU, TRMT61B / Fold change vs veh, TRMT61B / RFU, FUBP3 / Fold change vs veh, FUBP3 / RFU, TP53 / Fold change vs veh, TP53 / RFU, TNKS2 / Fold change vs veh, TNKS2 / RFU, ZFP14 / Fold change vs veh, ZFP14 / RFU, ACTR2 / Fold change vs veh, ACTR2 / RFU, PPP3R1 / Fold change vs veh, PPP3R1 / RFU, PIK3R1 / Fold change vs veh, PIK3R1 / RFU, HNRNPA1 / Fold change vs veh, HNRNPA1 / RFU, RNF170 / Fold change vs veh, RNF170 / RFU, ZNF28 / Fold change vs veh, ZNF28 / RFU, RNGTT / Fold change vs veh, RNGTT / RFU, OGT / Fold change vs veh, OGT / RFU, BRD1 / Fold change vs veh, BRD1 / RFU, MARS / Fold change vs veh, MARS / RFU, ZNF655 / Fold change vs veh, ZNF655 / RFU, FAHD1 / Fold change vs veh, FAHD1 / RFU, BDP1 / Fold change vs veh, BDP1 / RFU, LRRCC1 / Fold change vs veh, LRRCC1 / RFU, ARID1A / Fold change vs veh, ARID1A / RFU, ZNF146 / Fold change vs veh, ZNF146 / RFU, ZNF330 / Fold change vs veh, ZNF330 / RFU, GPN3 / Fold change vs veh, GPN3 / RFU, C9orf123 / Fold change vs veh, C9orf123 / RFU, N4BP2L2 / Fold change vs veh, N4BP2L2 / RFU, ARFIP1 / Fold change vs veh, ARFIP1 / RFU, FAM179B / Fold change vs veh, FAM179B / RFU, BCL10 / Fold change vs veh, BCL10 / RFU, UHRF1BP1L / Fold change vs veh, UHRF1BP1L / RFU, BET1 / Fold change vs veh, BET1 / RFU, CNOT2 / Fold change vs veh, CNOT2 / RFU, ZNF268 / Fold change vs veh, ZNF268 / Fold change vs veh, ZNF507 / RFU, DGCR2 / Fold change vs veh, DGCR2 / RFU, WDSUB1 / Fold change vs veh, WDSUB1 / Fold change vs veh, HSP90B1 /// MIR3652 / RFU, ADSS / Fold change vs veh, ADSS / RFU, GK / Fold change vs veh, GK / RFU, ZNF148 / Fold change vs veh, ZNF148 / RFU, TAF9 / Fold change vs veh, TAF9 / RFU, SLC1A5 / Fold change vs veh, SLC1A5 / RFU, SLMO2 / Fold change vs veh, SLMO2 / RFU, ABCC4 / Fold change vs veh, ABCC4 / RFU, LOC101060439 /// RAP1B / Fold change vs veh, LOC101060439 /// RAP1B / RFU, RFX7 / Fold change vs veh, RFX7 / RFU, GTPBP10 / Fold change vs veh, GTPBP10 / RFU, CNEP1R1 / Fold change vs veh, CNEP1R1 / RFU, BIVM-ERCC5 /// ERCC5 / Fold change vs veh, BIVM-ERCC5 /// ERCC5 / RFU, ILF3 / Fold change vs veh, ILF3 / RFU 11762660_at / Fold change /veh 11762660_at / RFU VCAN (11757783_s_at) / Fold change /veh VCAN (11757783_s_at) / RFU DDX43 (11728927_at) / Fold change /veh DDX43 (11728927_at) / RFU KRT8 (11758188_x_at) / Fold change /veh KRT8 (11758188_x_at) / RFU NKD1 (11759106_at) / Fold change /veh NKD1 (11759106_at) / RFU SRD5A1 (11742802_a_at) / Fold change /veh SRD5A1 (11742802_a_at) / RFU TPSAB1 /// TPSB2 (11721975_s_at) / Fold change /veh TPSAB1 /// TPSB2 (11721975_s_at) / RFU GSTM3 (11746129_a_at) / Fold change /veh GSTM3 (11746129_a_at) / RFU IL23R (11737362_x_at) / Fold change /veh IL23R (11737362_x_at) / RFU TMEM51 (11727254_a_at) / Fold change /veh TMEM51 (11727254_a_at) / RFU PIWIL2 (11732686_x_at) / Fold change /veh PIWIL2 (11732686_x_at) / RFU ORM1 (11744905_x_at) / Fold change /veh ORM1 (11744905_x_at) / RFU CCDC152 (11743942_at) / Fold change /veh CCDC152 (11743942_at) / RFU ECM1 (11717891_a_at) / Fold change /veh ECM1 (11717891_a_at) / RFU IL23R (11748794_a_at) / Fold change /veh IL23R (11748794_a_at) / RFU TNFAIP8L3 (11732012_x_at) / Fold change /veh TNFAIP8L3 (11732012_x_at) / RFU MBOAT4 (11741988_at) / Fold change /veh MBOAT4 (11741988_at) / RFU 11764193_at / Fold change /veh 11764193_at / RFU TMEM53 (11763286_at) / Fold change /veh TMEM53 (11763286_at) / RFU MAGEB2 (11727129_at) / Fold change /veh MAGEB2 (11727129_at) / RFU TMEM200A (11744735_a_at) / Fold change /veh TMEM200A (11744735_a_at) / RFU CCDC152 (11751479_a_at) / Fold change /veh CCDC152 (11751479_a_at) / RFU FAM211A (11726209_a_at) / Fold change /veh FAM211A (11726209_a_at) / RFU RGS16 (11746705_a_at) / Fold change /veh RGS16 (11746705_a_at) / RFU VCAN (11755009_s_at) / Fold change /veh VCAN (11755009_s_at) / RFU RHOB (11743442_s_at) / Fold change /veh RHOB (11743442_s_at) / RFU RGS16 (11720943_a_at) / Fold change /veh RGS16 (11720943_a_at) / RFU RGS16 (11720944_at) / Fold change /veh RGS16 (11720944_at) / RFU, VPS4B / Fold change vs veh, VPS4B / RFU, CREB1 / Fold change vs veh, CREB1 / RFU, DNAJC13 / Fold change vs veh, DNAJC13 / RFU, GNAQ / Fold change vs veh, GNAQ / RFU, CDK5R1 / Fold change vs veh, CDK5R1 / RFU, ZRANB3 / Fold change vs veh, ZRANB3 / RFU, CUL4A / Fold change vs veh, CUL4A / RFU, CCNY / Fold change vs veh, CCNY / RFU, UFL1 / Fold change vs veh, UFL1 / RFU, COG3 / Fold change vs veh, COG3 / RFU, DIAPH2 / Fold change vs veh, DIAPH2 / RFU, SKA2 / Fold change vs veh, SKA2 / RFU, AFF3 / Fold change vs veh, AFF3 / RFU, LMF1 / Fold change vs veh, LMF1 / RFU, IPO11 / Fold change vs veh, IPO11 / RFU, DFFB / Fold change vs veh, DFFB / RFU, FOXP1 / Fold change vs veh, FOXP1 / RFU, CARD8 / Fold change vs veh, CARD8 / RFU, STRN3 / Fold change vs veh, STRN3 / RFU, ADK / Fold change vs veh, ADK / RFU, RASSF2 / Fold change vs veh, RASSF2 / RFU, WIPF1 / Fold change vs veh, WIPF1 / RFU, LARP1B / Fold change vs veh, LARP1B / RFU, RASA1 / Fold change vs veh, RASA1 / RFU, RB1 / Fold change vs veh, RB1 / RFU, PPFIA1 / Fold change vs veh, PPFIA1 / RFU, MAT2A / Fold change vs veh, MAT2A / RFU, CCT5 / Fold change vs veh, CCT5 / RFU, WDR92 / Fold change vs veh, WDR92 / RFU, CUX1 / Fold change vs veh, CUX1 / RFU, TTC7A / Fold change vs veh, TTC7A / RFU, TMEM135 / Fold change vs veh, TMEM135 / RFU, DEPTOR / Fold change vs veh, DEPTOR / RFU, CPM / Fold change vs veh, CPM / RFU, DNAJB6 / Fold change vs veh, DNAJB6 / RFU, CACNA2D3 / Fold change vs veh, CACNA2D3 / RFU, DTX4 / Fold change vs veh, DTX4 / RFU, TFCP2 / Fold change vs veh, TFCP2 / RFU, GMCL1 /// GMCL1P1 / Fold change vs veh, GMCL1 /// GMCL1P1 / RFU, AEBP2 / Fold change vs veh, AEBP2 / RFU, SNHG1 /// SNORD22 /// SNORD25 /// SNORD26 /// SNORD27 /// SNORD28 /// SNORD29 /// SNORD31 / Fold change vs veh, SNHG1 /// SNORD22 /// SNORD25 /// SNORD26 /// SNORD27 /// SNORD28 /// SNORD29 /// SNORD31 / Fold change (Aza/veh), C12orf56 (ProbeSet 11735607_a_at) / Fold change (ACY-1035/veh), C12orf56 (ProbeSet 11735607_a_at) / Fold change (Aza/veh), FGFR1OP (ProbeSet 11751329_s_at) / Fold change (ACY-1035/veh), FGFR1OP (ProbeSet 11751329_s_at) / Fold change (Aza/veh), VPS36 (ProbeSet 11739960_a_at) / Fold change (ACY-1035/veh), VPS36 (ProbeSet 11739960_a_at) / RFU SYPL1 (11715823_x_at) / Fold change /veh SYPL1 (11715823_x_at) / RFU IGFBP7 (11715501_s_at) / Fold change /veh IGFBP7 (11715501_s_at) / RFU REEP3 (11722064_at) / Fold change /veh REEP3 (11722064_at) / RFU IGLL1 (11728026_x_at) / Fold change /veh IGLL1 (11728026_x_at): dose or concentration left out as unconfirmed. Conditions: MV-4-11 cells, 48 hours.

As to `Nc1ncn([C@@H]2O[C@H](CO)[C@@H](O)[C@H]2O)c(=O)n1` [azacitidine], the “Fold change /veh ANKRD19P (11752326_a_at)” value was 1.10.

The values are drawn from PMC5218480 (PLoS ONE, 2017).
